# Reference: ChEMBL document CHEMBL6109069 (J Med Chem, 2025)
# Active and inactive are the calls of the source. No cut-off for these calls is given here. Starred links: 1 amine or outer side, 2 acyl side, 3 side chain; linkers in the order of their positions; H or OH if unused. Non-standard residues stand in square brackets, D forms with d. Residues, ends and D or L forms follow the SMILES beside them. *: point of attachment. X1 = CCC(=O)C[C@@H](O)C[C@@H](C)C[C@H](N[*:1])C(=O)[*:2]; Hexenoyl(2E,4S-Me) = CC[C@H](C)/C=C/C(=O)*; Leu(3R-OH) = CC(C)[C@@H](O)[C@H](N)C(=O)O; NH((S)CH(Me)CH2NMe2) = C[C@@H](CN(C)C)N*; Pro(4S-Me) = C[C@@H]1CN[C@H](C(=O)O)C1; NH(1-CH2NMe2-cBu) = CN(C)CC1(N*)CCC1; Benzoyl(4-F) = O=C(c1ccc(F)cc1)*; hCha = N[C@@H](CCC1CCCCC1)C(=O)O; NHCH2CH2NMe2 = CN(C)CCN*; Aib = CC(C)(N)C(=O)O; X2 = CN(CCN*)CC(F)F; βAla = NCCC(=O)O
# How the values were obtained:
# Leishmania donovani = assay: Antitrypanosomal activity against Leishmania donovani MHOM/ET/67/L82 incubated for 72 hrs by resazurin staining based analysis; assay type: functional, organism-based; conditions: MHOM/ET/67/L82, 72 h
# Plasmodium falciparum = assay: Antiplasmodial activity against Plasmodium falciparum NF54 incubated for 48 hrs; assay type: functional, organism-based; conditions: NF54, 48 h
# [1] = Cytotoxicity against rat L6 cells assessed as cell viability incubated for 72 hrs by CCK-8 assay
# [2] = Inhibition of Bovine heart ATP synthase assessed as inhibition constant by Michaelis-Menten plot analysis; set-up: species or system Bos taurus; conditions: read-out: Ki
# Fibroblast [3] = assay: Reduction in respiration rate in human Fibroblast cells assessed as decrease in coupling efficiency at > 200 nM incubated up to 60 mins; assay type: functional, cell-based
# Bos taurus = organism: Bos taurus; assay: Potency index, ratio of Leucinostatin A Ki to test compound Ki for inhibition of Bovine heart ATP synthase
# Trypanosoma cruzi = assay: Antitrypanosomal activity against Trypanosoma cruzi Tulahuen C4 incubated for 4 days; assay type: functional, organism-based; conditions: Tulahuen C4, 96 h
# [4] = tested on: Trypanosoma brucei rhodesiense; assay: Antitrypanosomal activity against Trypanosoma brucei rhodesiense STIB 900 incubated for 72 hrs by resazurin staining based analysis; assay type: functional, organism-based; conditions: STIB 900, 72 h
# Lipid bilayer [5] = assay: Disruption of membrane integrity in bacterial cell membrane mimic POPC/POPG LUVs assessed as calcein leakage at 500 nM measured for 1 mins by fluorescence spectroscopy analysis
# [6] = tested on: Trypanosoma brucei rhodesiense; assay: Antitrypanosomal activity against Trypanosoma brucei rhodesiense STIB 900; assay type: functional, organism-based
# Fibroblast [7] = assay: Inhibition of ATP synthase in human Fibroblast cells assessed as decrease in oxygen consumption at 50 nM by OROBOROS instrument based analysis; assay type: cell-based
# Lipid bilayer [8] = assay: Disruption of membrane integrity in bacterial cell membrane mimic POPC/POPG LUVs assessed as calcein leakage at 1.3 uM measured for 1 mins by fluorescence spectroscopy analysis
# [9] = Reduction in respiration rate in human Fibroblast cells assessed as decrease in coupling efficiency at 50 nM incubated up to 80 mins; assay type: functional; set-up: scale not given: the % may be the effect or the level left; conditions: 1.333 h
# Lipid bilayer [10] = assay: Disruption of membrane integrity in bacterial cell membrane mimic POPC/POPG LUVs assessed as HTPS leakage at 1 uM measured for 1 mins by fluorescence spectroscopy analysis
# Lipid bilayer [11] = assay: Disruption of membrane integrity in bacterial cell membrane mimic POPC/POPG LUVs assessed as HTPS leakage at 5 uM measured for 1 mins by fluorescence spectroscopy analysis
# Fibroblast [12] = assay: Induction of mitochondrial uncoupling activity in human Fibroblast cells assessed as increase in oxygen consumption rate by measuring fluorescence intensity by O2k-type oxygraph analysis; assay type: functional, cell-based
# [13] = Toxicity in ip dosed mouse assessed as lethal dose; assay type: organism-based; conditions: in vivo
# [14] = Toxicity in po dosed mouse assessed as lethal dose; assay type: organism-based; conditions: in vivo
# [15] = Cytotoxicity against rat L6 cells; assay type: toxicity, cell-based
# [16] = Inhibition of yeast ATP synthase assessed as inhibition constant by Michaelis-Menten plot analysis; set-up: species or system Saccharomyces cerevisiae
# Mitochondrial membrane [17] = assay: Induction of mitochondrial membrane hyperpolarization in bovine heart assessed as change in fluorescence intensity at 25 nM by safranin O staining based eclipse fluorescence spectrophotometric analysis; assay type: cell membranes; conditions: Bos taurus
# [18] = Inhibition of Escherichia coli ATP synthase assessed as inhibition constant
# Trypanosoma brucei [19] = assay: Induction of mitochondrial uncoupling activity in Trypanosoma brucei assessed as increase in oxygen consumption rate by measuring fluorescence intensity by O2k-type oxygraph analysis; assay type: functional, organism-based
# [20] = Cytotoxicity against rat L6 cells assessed as cell viability; assay type: toxicity, cell-based
# Lipid bilayer [21] = assay: Disruption of membrane integrity in bacterial cell membrane mimic POPC/POPG LUVs assessed as HTPS leakage at 5 uM measured after 1 mins
# Mitochondrial membrane [22] = assay: Induction of mitochondrial membrane depolarization in bovine heart assessed as change in fluorescence intensity at 100 to 200 nM by safranin O staining based eclipse fluorescence spectrophotometric analysis; assay type: cell membranes; conditions: Bos taurus, dose 100-200 nM
# Trypanosoma brucei [23] = assay: Induction of mitochondrial uncoupling activity in Trypanosoma brucei assessed as increase in oxygen consumption rate by measuring fluorescence intensity at 25 nM measured up to 80 mins by O2k-type oxygraph analysis; assay type: functional, organism-based
# Fibroblast [24] = assay: Induction of mitochondrial uncoupling activity in human Fibroblast cells assessed as increase in oxygen consumption rate by measuring fluorescence intensity at 25 nM measured up to 80 mins by O2k-type oxygraph analysis; assay type: functional, cell-based
# Mitochondrial membrane [25] = assay: Induction of mitochondrial membrane depolarization in bovine heart assessed as change in fluorescence intensity at 25 nM by safranin O staining based eclipse fluorescence spectrophotometric analysis; assay type: cell membranes; conditions: Bos taurus
# Mitochondrial membrane [26] = assay: Induction of mitochondrial membrane potential in bovine heart assessed as change in fluorescence intensity at 200 nM by safranin O staining based eclipse fluorescence spectrophotometric analysis; assay type: cell membranes; conditions: Bos taurus
SMILES,IC50 (Leishmania donovani) [nM],IC50 (Plasmodium falciparum) [nM],Ki [2] [nM],IC50 (Trypanosoma cruzi) [nM],Activity (Lipid bilayer [5]),IC50 [6] [nM],Activity (Lipid bilayer [8]),Activity [9] [%],Ki [18] [nM],further results
"CC[C@H](C)/C=C/C(=O)N1C[C@@H](C)C[C@H]1C(=O)N[C@@H](CCC1CCCCC1)C(=O)N[C@H](C(=O)NC(C)(C)C(=O)N[C@@H](CC(C)C)C(=O)N[C@@H](CC(C)C)C(=O)NC(C)(C)C(=O)NC(C)(C)C(=O)NCCC(=O)N[C@@H](C)CN(C)C)[C@H](O)C(C)C ({Hexenoyl(2E,4S-Me)}-[Pro(4S-Me)][hCha][Leu(3R-OH)][Aib]LL[Aib][Aib][βAla]-{NH((S)CH(Me)CH2NMe2)})",1.2,0.47,22,275,,,,,,IC50 at 72 h [1]: 232 nM; Activity (Fibroblast [3]): Active; Ratio Ki (Bos taurus): 4; IC50 [4]: 0.34 nM
CC(C)C[C@H](NC(=O)[C@H](CCC1CCCCC1)NC(=O)[C@@H]1CCCN1C(=O)c1ccc(F)cc1)C(=O)NC(C)(C)C(=O)N[C@@H](CC(C)C)C(=O)N[C@@H](CC(C)C)C(=O)NC(C)(C)C(=O)NC(C)(C)C(=O)NCCC(=O)NCCN(C)C ({Benzoyl(4-F)}-P[hCha]L[Aib]LL[Aib][Aib][βAla]-NHCH2CH2NMe2),,,455,,Active,3.9,,,,
CC(C)C[C@H](NC(=O)[C@H](CCC1CCCCC1)NC(=O)[C@@H]1CCCN1C(=O)c1ccc(F)cc1)C(=O)NC(C)(C)C(=O)N[C@@H](CC(C)C)C(=O)N[C@@H](CC(C)C)C(=O)NC(C)(C)C(=O)NC(C)(C)C(=O)NCCC(=O)NCCN(C)CC(F)F ({Benzoyl(4-F)}-P[hCha]L[Aib]LL[Aib][Aib][βAla]-X2),,,499,,Active,393,,,,
"CCC(=O)C[C@@H](O)C[C@@H](C)C[C@H](NC(=O)[C@@H]1C[C@H](C)CN1C(=O)/C=C/[C@@H](C)CC)C(=O)N[C@H](C(=O)NC(C)(C)C(=O)N[C@@H](CC(C)C)C(=O)N[C@@H](CC(C)C)C(=O)NC(C)(C)C(=O)NC(C)(C)C(=O)NCCC(=O)N[C@@H](C)CN(C)C)[C@H](O)C(C)C ({Hexenoyl(2E,4S-Me)}-[Pro(4S-Me)][X1][Leu(3R-OH)][Aib]LL[Aib][Aib][βAla]-{NH((S)CH(Me)CH2NMe2)})",1.1,0.61,80,23,,0.25,Active,~60,> 1000,inhibition (Fibroblast [7]): Active; Activity (Lipid bilayer [10]): inactive; Activity (Lipid bilayer [11]): inactive; Activity (Fibroblast [12]): Active; LD50 [13]: 1.8 mg/kg; LD50 [14]: 5.4 mg/kg; IC50 [15]: 259 nM; Ki [16]: ~30 nM; Activity (Mitochondrial membrane [17]): Active; Activity (Trypanosoma brucei [19]): Active; IC50 [20]: 259 nM
CC(C)C[C@H](NC(=O)[C@H](CCC1CCCCC1)NC(=O)[C@@H]1CCCN1C(=O)c1ccc(F)cc1)C(=O)NC(C)(C)C(=O)N[C@@H](CC(C)C)C(=O)N[C@@H](CC(C)C)C(=O)NC(C)(C)C(=O)NC(C)(C)C(=O)NCCC(=O)NC1(CN(C)C)CCC1 ({Benzoyl(4-F)}-P[hCha]L[Aib]LL[Aib][Aib][βAla]-{NH(1-CH2NMe2-cBu)}),4.9,5.4,265,114,,0.39,Active,~3,~260,Activity (Lipid bilayer [21]): Active; Activity (Mitochondrial membrane [22]): Active; Activity (Trypanosoma brucei [23]): inactive; Activity (Fibroblast [24]): inactive; Activity (Mitochondrial membrane [25]): Active; Activity (Mitochondrial membrane [26]): Active
